Key:
Apolipoprotein L1 = Apolipoprotein L1 (Homo sapiens, UniProt O14791); test: Inhibition of APOL1 G1 variant in human HEK293-T-REx cells measured by Thallium assay; type: cell-based
[1] = test system: Trypanosoma brucei brucei; test: Antitrypanosomal activity against Trypanosoma brucei brucei assessed as trypanosome lysis using recombinant APOL1 protein G1 variant and measured by Alamar blue based fluoresence assay; type: functional, organism-based

CC(=O)C1CCCCN1C(=O)[C@H]1C[C@H](c2c(-c3ccc(F)cc3)[nH]c3c(F)cc(F)cc32)C1 (some centres not stated)
IC50 (Apolipoprotein L1): > 1000 nM | IC50 [1]: 250 nM

From ChEMBL document CHEMBL5052856, “Inhibitors of apol1 and methods of using same” (2021)
